Measurements as given in PMC8041284, “Tunable Methacrylamides for Covalent Ligand Directed Release Chemistry” (Journal of the American Chemical Society, 2021).

Each compound was assayed against BTK (Homo sapiens, UniProt Q06187) (assay: biochemical). Settings: read-out: BTK inhibition (%).
BTK, sequence (Q06187 402-655 limits assumed): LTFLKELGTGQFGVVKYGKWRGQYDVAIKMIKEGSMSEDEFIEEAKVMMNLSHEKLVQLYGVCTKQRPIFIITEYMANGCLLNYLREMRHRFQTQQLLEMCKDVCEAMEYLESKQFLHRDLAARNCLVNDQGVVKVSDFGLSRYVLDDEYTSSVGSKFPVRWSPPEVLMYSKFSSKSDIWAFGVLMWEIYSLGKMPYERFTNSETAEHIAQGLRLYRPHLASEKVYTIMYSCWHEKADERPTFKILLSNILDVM

**Q.** For `Cl[Te]1(Cl)(Cl)OCCO1` [PCM-0215721], which inhibition at 10 µM is on record?
**A.** 98.6%

**Q.** `COC(=O)C[C@](O)(CCC(C)(C)O)C(=O)O[C@@H]1C(OC)=C[C@]23CCCN2CCc2cc4c(cc2[C@H]13)OCO4` [PCM-0216362] was tested. Which inhibition at 10 µM did it give?
**A.** -7.7%

Same assay, conditions: read-out: BTK inhibition (%), 0.75 uM BTK, […] probe 3l, 15 min preincubation

**Q.** How did the inhibition at 10 µM turn out when `Cn1cc(-c2[nH]c3cc(NC(=O)[C@H](N)C4CCCCC4)cc4c3c2C=NNC4=O)cn1` [PCM-0095372] was run?
**A.** 111%

**Q.** How did the inhibition at 10 µM turn out when `CC(C)N(CCC(C(N)=O)(c1ccccc1)c1ccccn1)C(C)C` (centres unmarked) [PCM-0065027] was run?
**A.** 5.4%

**Q.** `CC(=O)Nc1nc(C)c(-c2ccc(Cl)c(S(=O)(=O)NCCO)c2)s1` [PCM-0095173] was tested. Which inhibition at 10 µM did it give?
**A.** -10.3%

**Q.** `NC[C@@](O)(c1ccc(Cl)cc1)c1ccc(-c2cn[nH]c2)cc1` [PCM-0215408] was tested. Which inhibition at 10 µM did it give?
**A.** -10.3%

**Q.** How did the inhibition at 10 µM turn out when `Cc1ccc(-c2cc(C(F)(F)F)nn2-c2ccc(S(N)(=O)=O)cc2)cc1` [PCM-0065035] was run?
**A.** 22.8%

**Q.** Which inhibition at 10 µM does the source give for `CCOc1ccc(Cc2cc([C@]34OC[C@](CO)(O3)[C@@H](O)[C@H](O)[C@H]4O)ccc2Cl)cc1` [PCM-0216244] here?
**A.** 7.7%

**Q.** How did the inhibition at 10 µM turn out when `Cc1ccc(C(C)C)c(O)c1` [PCM-0215949] was run?
**A.** 23.2%

**Q.** Which inhibition at 10 µM does the source give for `CC(C)c1ccc(CO)cc1` [PCM-0216002] here?
**A.** -6.2%

**Q.** How did the inhibition at 10 µM turn out when `CC(C)CCn1c(CN2CCN(C(=O)C3CC3)CC2)nc2c1c(=O)n(C)c(=O)n2C` [PCM-0215566] was run?
**A.** -13.9%

**Q.** For `Cn1nnc(-c2ccc(-c3ccc(N4C[C@H](CO)OC4=O)cc3F)cn2)n1` [PCM-0216559], which inhibition at 10 µM is on record?
**A.** -12.4%

**Q.** `O=C(CO)[C@@H](O)[C@H](O)[C@@H](O)CO` [PCM-0216101] was tested. Which inhibition at 10 µM did it give?
**A.** -4.3%

**Q.** `O=C(O)/C=C(/CC(=O)O)C(=O)O` [PCM-0215145] was tested. Which inhibition at 10 µM did it give?
**A.** -0.8%

**Q.** `O=C(O)CSCC(=O)NC1CCSC1=O` (centres unmarked) [PCM-0090679] was tested. Which inhibition at 10 µM did it give?
**A.** -10.9%

**Q.** Which inhibition at 10 µM does the source give for `Cc1ccc(S(=O)(=O)Cc2nc(-c3ccc(C(=O)NCc4cccnc4)cc3)oc2C)cc1` [PCM-0215271] here?
**A.** -4.6%

**Q.** Which inhibition at 10 µM does the source give for `CC(C)(CO)[C@@H](O)C(=O)NCCC(=O)NCCSSCCNC(=O)CCNC(=O)[C@H](O)C(C)(C)CO` [PCM-0216020] here?
**A.** -28.9%

**Q.** `Cc1cc(C#N)cc(C)c1Oc1nc(Nc2ccc(C#N)cc2)nc(N)c1Br` [PCM-0095562] was tested. Which inhibition at 10 µM did it give?
**A.** 36.6%

**Q.** How did the inhibition at 10 µM turn out when `COc1cc2ncnc(Nc3ccc(F)c(Cl)c3)c2cc1O` [PCM-0216130] was run?
**A.** 5.4%

**Q.** `CN(C)C(=O)Nc1cccc(-c2ccc(N(C)C)cc2)c1` [PCM-0095740] was tested. Which inhibition at 10 µM did it give?
**A.** -3.1%

**Q.** `NC(=O)c1ccc(OCCCN2CC3CCCC3C2)cc1` (centres unmarked) [PCM-0215865] was tested. Which inhibition at 10 µM did it give?
**A.** 6.2%

**Q.** `COc1ccc(C[C@@H](C)NC[C@H](O)c2ccc(O)c(NC=O)c2)cc1` [PCM-0086341] was tested. Which inhibition at 10 µM did it give?
**A.** 7%

**Q.** How did the inhibition at 10 µM turn out when `COc1ccc(-c2cc(=O)c3c(O)c(OC)c(O)cc3o2)cc1OC` [PCM-0214985] was run?
**A.** 72.4%

**Q.** `CCCCCCCCCC(C)O` (centres unmarked) [PCM-0216633] was tested. Which inhibition at 10 µM did it give?
**A.** -30.1%

**Q.** How did the inhibition at 10 µM turn out when `OC[C@H]1O[C@@H](c2ccc(Cl)c(Cc3ccc(O[C@H]4CCOC4)cc3)c2)[C@H](O)[C@@H](O)[C@@H]1O` [PCM-0095610] was run?
**A.** 12.4%

**Q.** With `Cc1nccn1CCC(C(N)=O)(c1ccccc1)c1ccccc1` [PCM-0216555] as the compound, how does the inhibition at 10 µM read?
**A.** 1.5%

**Q.** How did the inhibition at 10 µM turn out when `CCC(C)(C)c1ccc(CC(C)CN2C[C@@H](C)O[C@@H](C)C2)cc1` (some centres unmarked) [PCM-0090274] was run?
**A.** -31.9%

**Q.** `c1cncc(-c2cn[nH]n2)c1` [PCM-0215871] was tested. Which inhibition at 10 µM did it give?
**A.** 15.4%

**Q.** `C[C@@H]1O[C@@H](O[C@H]2[C@H](O)[C@@H](O)[C@H](OC[C@H]3O[C@@H](OC(=O)[C@]45CCC(C)(C)C[C@H]4C4=CC[C@@H]6[C@@]7(C)CC[C@H](O[C@@H]8OC[C@H](O)[C@H](O)[C@H]8O)[C@@](C)(CO)[C@@H]7CC[C@@]6(C)[C@]4(C)CC5)[C@H](O)[C@@H](O)[C@@H]3O)O[C@@H]2CO)[C@H](O)[C@H](O)[C@H]1O` [PCM-0216340] was tested. Which inhibition at 10 µM did it give?
**A.** -10.2%

**Q.** With `COc1ccc([C@@H]2CC(=O)c3c(O)cc(O[C@@H]4O[C@H](CO[C@@H]5O[C@@H](C)[C@H](O)[C@@H](O)[C@H]5O)[C@@H](O)[C@H](O)[C@H]4O)cc3O2)cc1OC` [PCM-0215169] as the compound, how does the inhibition at 10 µM read?
**A.** 5.4%

**Q.** With `c1ccc([C@H]2CN3CCSC3=N2)cc1` [PCM-0065508] as the compound, how does the inhibition at 10 µM read?
**A.** 17.9%

**Q.** With `O=C1NC(=NCc2cccs2)S/C1=C\c1ccc2ncccc2c1` [PCM-0215455] as the compound, how does the inhibition at 10 µM read?
**A.** -9%

**Q.** For `O=C(c1ccc(Oc2ccccc2)cc1Cl)c1c[nH]c2ncnc(N[C@@H]3CC[C@@H](CO)OC3)c12` [PCM-0216245], which inhibition at 10 µM is on record?
**A.** 116%

**Q.** Which inhibition at 10 µM does the source give for `O=C(Nc1ccc(Br)cc1)c1ccc(Br)c(S(=O)(=O)NCc2ccccc2)c1` [PCM-0215665] here?
**A.** 100%

**Q.** For `Cc1cc(S(=O)(=O)O)c2c(C)ccc(C(C)C)cc1-2` [PCM-0216127], which inhibition at 10 µM is on record?
**A.** 37.2%

**Q.** How did the inhibition at 10 µM turn out when `C=C[C@H]1CN2CC[C@H]1C[C@@H]2[C@@H](O)c1ccnc2ccccc12` [PCM-0214935] was run?
**A.** -17.1%

**Q.** Which inhibition at 10 µM does the source give for `O=C(O)CCCc1c[nH]c2ccccc12` [PCM-0094810] here?
**A.** -12.5%

**Q.** For `C=CC(=O)N1C[C@H](Nc2ncnc3[nH]ccc23)CC[C@@H]1C` [PCM-0215972], which inhibition at 10 µM is on record?
**A.** 95%

**Q.** For `NC(N)=N/N=C/c1c(Cl)cccc1Cl` [PCM-0065199], which inhibition at 10 µM is on record?
**A.** -2.3%

**Q.** With `C[C@H]1C[C@H]2[C@@H]3CCC4=CC(=O)C=C[C@]4(C)[C@H]3C(=O)C[C@]2(C)[C@@]1(O)C(=O)CO` [PCM-0095139] as the compound, how does the inhibition at 10 µM read?
**A.** 29%

**Q.** `CCCc1nc2c(C)cc(-c3nc4ccccc4n3C)cc2n1Cc1ccc(-c2ccccc2C(=O)O)cc1` [PCM-0086294] was tested. Which inhibition at 10 µM did it give?
**A.** -10.9%

**Q.** Which inhibition at 10 µM does the source give for `C=C(C)[C@H]1CC=C(C)CC1` [PCM-0216628] here?
**A.** 5.4%

**Q.** How did the inhibition at 10 µM turn out when `Cc1ccc(OCC(O)C(C)NC(C)C)c2c1CCC2` (centres unmarked) [PCM-0215619] was run?
**A.** 13.9%

**Q.** For `CCCC1O[C@@H]2C[C@H]3[C@@H]4CCC5=CC(=O)C=C[C@]5(C)[C@H]4[C@@H](O)C[C@]3(C)[C@]2(C(=O)CO)O1` (some centres unmarked) [PCM-0214610], which inhibition at 10 µM is on record?
**A.** -13.1%

**Q.** How did the inhibition at 10 µM turn out when `Cn1cc(C(=O)Nc2ccc3c(c2)OCCO3)c2ccccc2c1=O` [PCM-0215752] was run?
**A.** 6.9%

**Q.** `COc1ccc(C2(C#N)CCC(C(=O)O)CC2)cc1OC1CCCC1` (centres unmarked) [PCM-0095129] was tested. Which inhibition at 10 µM did it give?
**A.** -29.6%

**Q.** `C[C@H]1C[C@H]2[C@@H]3C[C@H](F)C4=CC(=O)C=C[C@]4(C)[C@@]3(F)[C@@H](O)C[C@]2(C)[C@@]1(O)C(=O)CO` [PCM-0216237] was tested. Which inhibition at 10 µM did it give?
**A.** 9%

**Q.** Which inhibition at 10 µM does the source give for `N=c1cc(N2CCCCC2)nc(N)n1OS(=O)(=O)O` [PCM-0216071] here?
**A.** -9.3%

**Q.** `COc1cc(OC2CCN(C)CC2)ccc1Nc1ncc2c(n1)n(C1CCCC1)c(=O)n2C` [PCM-0095460] was tested. Which inhibition at 10 µM did it give?
**A.** -15.2%

**Q.** `CN(C)CCC(c1ccc(Cl)cc1)c1ccccn1` (centres unmarked) [PCM-0064500] was tested. Which inhibition at 10 µM did it give?
**A.** 6.9%

**Q.** `COC(=O)c1ccc2c(C(=Nc3ccc(N(C)C(=O)CN4CCN(C)CC4)cc3)c3ccccc3)c(O)[nH]c2c1` [PCM-0094897] was tested. Which inhibition at 10 µM did it give?
**A.** 22.1%

**Q.** How did the inhibition at 10 µM turn out when `COc1c2occc2cc2ccc(=O)oc12` [PCM-0087924] was run?
**A.** -19.5%

**Q.** Which inhibition at 10 µM does the source give for `C[C@@H](Oc1ccc2[nH]nc(/C=C/c3cnn(CCO)c3)c2c1)c1c(Cl)cncc1Cl` [PCM-0215376] here?
**A.** 101%

**Q.** `CC(C)=CCC[C@@](C)(O)[C@H]1CC[C@]2(C)[C@@H]1[C@H](O)C[C@@H]1[C@@]3(C)CC[C@H](O[C@@H]4O[C@H](CO)[C@@H](O)[C@H](O)[C@H]4O[C@@H]4O[C@H](CO)[C@@H](O)[C@H](O)[C@H]4O)C(C)(C)[C@@H]3CC[C@]12C` [PCM-0216609] was tested. Which inhibition at 10 µM did it give?
**A.** 21.6%

**Q.** Which inhibition at 10 µM does the source give for `CC1(C)[C@@H]2CC[C@@]1(C)C(=O)C2` [PCM-0214819] here?
**A.** 1.6%

**Q.** With `CCCCCCCCCCCCCCCCO` [PCM-0214755] as the compound, how does the inhibition at 10 µM read?
**A.** -3.9%
